According to US20120184548A1, “CARBOXYLIC ACID ARYL AMIDES” (priority 2011, published 2012):

Columns and labels:
[1] = test system: SW620 human colon cancer cells; assay: SW620 Cell Viability Assay (CellTiter-Glo); assay type: cell-based; settings: SW-620, 96 h, 4 days incubation, read-out: Cellular EC50 SW620
Description: 1. Cell Plate Preparation: SW620 human colon cancer cells (known to express DYRK1B), obtained from ATCC, were seeded into 96-well plates at […] in 50 μL of media. • Harvested the required number of cells (counts & viability determined by Guava Viacount). • Centrifuge cells to pellet and removed supernant. • Resuspended in growth media (50 μL/well) & pipetted thoroughly to break up clumps. • Setup for ˜100 wells/plate, therefore, VT=5 mL/plate @ 1.2×10^5 cells/mL. 1A. Some cells (S-) were allowed to attach for 24 hrs, serum starved for 48 hrs, and then followed with treatments of test compound.
Test Compound solution was prepared in regular corresponding media supplemented with serum
2. Test Compound Preparation: Test compounds were solubilized in either DMSO or media and prepared at various stock concentrations. • All compounds were incubated at 37° C. for 30 minutes and vortexed. • (5 mM stocks of test compound were prepared for non-soluble drugs)
3. Test Compound Plate Preparation:
• The 10 mM test compound stock was diluted to a concentration of 100× the final Cmax concentration. • Then the test compound stock is diluted 50-fold in media and/or second test compound for a final Cmax concentration in the test compound plate. • The Cmax in the test compound plate (2% DMSO) is 2-fold higher than the final Cmax in the cell plate (60 uL titrations were 1:3). 4. Viability Assay: This assay was performed as follows: • Transfer 50 μL of test compound solution per well from the test compound plate onto the cell plate prepared in Step #1. • Mix the plate with treated cells by pipetting up and down three times with 200 μL multi-channel pipet. • Incubate the cells in 5% CO2 incubator @ 37° C. for 4 days. • Run the CellTiter-Glo™ Luminescent Cell Viability Assay. The results of this assay, given as EC50 values, indicate the concentration of test compound that inhibits tumor cell proliferation by 50%.

[2] = molecular target: T1, Human DYRK1B (Homo sapiens, UniProt Q9Y463); assay: DYRK1B Kinase TR-FRET (IMAP-Tb) Assay; assay type: biochemical; settings: TR-FRET; ATP 70 μM; 37° C. for 60 minutes; averages of multiple runs; read-out: Enzyme IC50 DYRK1B
T1 construct: purchased Invitrogen PR8350B (former PV4649)
Text: The kinase TR-FRET (IMAP-Tb) assay uses a fluorescence labeled substrate peptide in the kinase reaction. Upon phosphorylation by the kinase, phosphopeptide is produced, which will be detected by the binding solution provided in IMAP TR-FRET binding kit. After the completion of the kinase reaction, the reaction will be stopped by adding the binding solution containing terbium tracer. This tracer is immobilized on the surface of the IMAP beads, which also contain metal ions on the beads that bind to the phospho-groups of the products. Thus the phosphorylated product of the reaction can enter into close proximity to the tracer, producing resonance energy transfer. Due to the long lifetime of terbium (Tb) fluorescence the detection can be run in time resolved mode, which virtually eliminates fluorescence interference from assay components or compounds. […] IC50 is the amount of test compound that inhibits 50% of the activity of DYRK1B in this assay. […] 1. Human DYRK1B: from Invitrogen. Part # PR8350B (former PV4649) 2. Substrate Peptide: RRRFRPASPLRGPPK 3. IMAP TR-FRET IPP Explorer Kit: from Molecular Devices. Part # R8157 4. Kinase Assay Buffer (KAB): 10 mM HEPES pH 7.0, 50 mM NaCl, 5 mM MgCl2, 1 mM DTT, 1 mM NaVO4, 200 μg/mL BSA (0.02%) 5. Assay Plate: Remp polypropylene clear 384-well microplate. Cat#23490-102 6. Detection Plate: Costa black 384-well microplate. Cat #3710 Assay Procedure: This assay was performed as follows: 1. Transfer 1.5 μL of 20× compound solution to each well of an assay plate. 2. Add to each well 22.5 μL of KAB Buffer. 3. Add to each well 3 μL of the solution of DYRK1B and ATP. […] Add to each well 3 μL of the substrate peptide. […] Incubate the assay plates at 37° C. for 60 minutes. 6. Add 18 μL of Detection Solution (1:800 diluted Progress bead stock, 1:400 diluted Tb stock, 80% Buffer A, and 20% Buffer B) into each well of detection plates. 7. Transfer 6 μL of assay solution from the assay plate to the detection plate. 8. Shake detection plates for 30 minutes. 9. Read plates in Envision with wavelength set at excitation 340 nm for Tb, emission 490 nm, and […]. 10. Calculation: TR-FRET Signal=(Reading at […])×2000000

[3] = molecular target: T2, Human DYRK1A (Homo sapiens, UniProt Q13627); assay: DYRK1A Kinase TR-FRET (IMAP-Tb) Assay; assay type: biochemical; settings: TR-FRET; ATP 70 μM; 37° C. for 60 minutes; averages of multiple runs; read-out: Enzyme IC50 DYRK1A
T2 construct: purchased Invitrogen PV3997
Text: The kinase TR-FRET (IMAP-Tb) assay uses a fluorescence labeled substrate peptide in the kinase reaction. Upon phosphorylation by the kinase, phosphopeptide is produced, which will be detected by the binding solution provided in IMAP TR-FRET binding kit. After the completion of the kinase reaction, the reaction will be stopped by adding the binding solution containing terbium tracer. This tracer is immobilized on the surface of the IMAP beads, which also contain metal ions on the beads that bind to the phospho-groups of the products. Thus the phosphorylated product of the reaction can enter into close proximity to the tracer, producing resonance energy transfer. Due to the long lifetime of terbium (Tb) fluorescence the detection can be run in time resolved mode, which virtually eliminates fluorescence interference from assay components or compounds.
The TR-FRET signal measurement from this assay, given as an IC50 measurement, is a measure of a test compound's ability to interfere with the phosphorylation of the peptide substrate, that is it inhibits the phosphorylation of the substrate peptide by DYRK1A, and is thus a measure of the test compound's ability to inhibit the activity of DYRK1A.
1. Human DYRK1A: from Invitrogen. Part # PV3997
2. Substrate Peptide: […]
3. IMAP TR-FRET IPP Explorer Kit: from Molecular Devices. Part # R8157 4. Kinase Assay Buffer (KAB): 10 mM HEPES pH 7.0, 50 mM NaCl, 5 mM MgCl2, 1 mM DTT, 1 mM NaVO4, 200 μg/mL BSA (0.02%) 5. Assay Plate: Remp polypropylene clear 384-well microplate. […] Detection Plate: Costa black 384-well microplate. […] Transfer 1.5 μL of 20× compound solution to each well of an assay plate. 2. Add to each well 22.5 μL of KAB Buffer. 3. Add to each well 3 μL of the solution of DYRK1A and ATP. […] Add to each well 3 μL of the substrate peptide. The assay concentration is 1.0 μM 5. Incubate the assay plates at 37° C. for 60 minutes. 6. Add 18 μL of Detection Solution (1:800 diluted Progress bead stock, 1:400 diluted Tb stock, 80% Buffer A, and 20% Buffer B) into each well of detection plates. 7. Transfer 6 μL of assay solution from the assay plate to the detection plate. 8. Shake detection plates for 30 minutes. 9. Read plates in Envision with wavelength set at excitation 340 nm for Tb, emission 490 nm, and […].

T1 sequence (Q9Y463 whole entry): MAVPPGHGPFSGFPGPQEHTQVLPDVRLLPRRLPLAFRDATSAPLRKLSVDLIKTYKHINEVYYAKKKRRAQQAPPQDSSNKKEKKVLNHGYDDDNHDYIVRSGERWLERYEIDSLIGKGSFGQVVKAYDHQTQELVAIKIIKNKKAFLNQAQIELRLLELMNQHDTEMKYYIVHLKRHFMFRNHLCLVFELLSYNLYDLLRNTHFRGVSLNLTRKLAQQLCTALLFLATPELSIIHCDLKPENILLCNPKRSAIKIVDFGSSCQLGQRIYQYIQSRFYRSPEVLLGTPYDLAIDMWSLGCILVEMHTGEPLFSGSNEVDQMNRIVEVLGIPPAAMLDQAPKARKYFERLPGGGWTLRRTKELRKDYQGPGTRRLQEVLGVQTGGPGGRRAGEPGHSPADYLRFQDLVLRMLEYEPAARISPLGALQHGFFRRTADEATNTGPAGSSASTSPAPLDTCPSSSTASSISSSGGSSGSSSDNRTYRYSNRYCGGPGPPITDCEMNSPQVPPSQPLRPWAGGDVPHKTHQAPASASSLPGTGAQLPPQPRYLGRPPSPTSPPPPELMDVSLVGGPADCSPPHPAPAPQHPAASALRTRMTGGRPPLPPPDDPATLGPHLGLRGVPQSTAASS

| SMILES | EC50 [1] [nM] | IC50 [2] [nM] | IC50 [3] [nM] |
| --- | --- | --- | --- |
| COCCOc1cc2cc(C(=O)Nc3cc(C(=O)OC)ccc3C)c(=O)[nH]c2cc1OC [Example 23, 3-{[7-Methoxy-6-(2-methoxy-ethoxy)-2-oxo-1,2-dihydro-quinoline-3-carbonyl]-amino}-4-methyl-benzoic acid methyl ester] | > 10000 | 440 | 262 |
| COc1cc2cc(C(=O)Nc3cc(C(=O)NC(CCN)c4ccccc4)ccc3C)c(=O)[nH]c2cc1OC (stereo not drawn) [Example 35, 6,7-Dimethoxy-2-oxo-1,2-dihydro-quinoline-3-carboxylic acid [5-(3-amino-1-phenyl-propylcarbamoyl)-2-methyl-phenyl]-amide] | 2050 | 59.5 | 154 |
| COCCOc1cc2cc(C(=O)Nc3cc(C(=O)NC(CN)c4ccccc4)ccc3C)c(=O)[nH]c2cc1OC (stereo not drawn) [Example 37, 7-Methoxy-6-(2-methoxy-ethoxy)-2-oxo-1,2-dihydro-quinoline-3-carboxylic acid [5-(2-amino-1-phenyl-ethylcarbamoyl)-2-methyl-phenyl]-amide] | 1820 | 32.5 | 19.1 |
| COCCOc1cc2cc(C(=O)Nc3cc(C(=O)NC(CCN)c4ccccc4)ccc3C)c(=O)[nH]c2cc1OC (stereo not drawn) [Example 38, 7-Methoxy-6-(2-methoxy-ethoxy)-2-oxo-1,2-dihydro-quinoline-3-carboxylic acid [5-(3-amino-1-phenyl-propylcarbamoyl)-2-methyl-phenyl]-amide] | 2760 | 44.8 | 34.7 |
| COC(=O)c1ccc(C)c(NC(=O)c2cc3cc(OCCN4CCOCC4)c(OC)cc3[nH]c2=O)c1 [Example 39, 3-{[7-Methoxy-6-(2-morpholin-4-yl-ethoxy)-2-oxo-1,2-dihydro-quinoline-3-carbonyl]-amino}-4-methyl-benzoic acid methyl ester] | 3410 | 190 | 150 |
| COc1cc2cc(C(=O)Nc3cc(C(=O)NCc4ccccc4)ccc3C)c(=O)[nH]c2cc1OC [Example 42, 6,7-Dimethoxy-2-oxo-1,2-dihydro-quinoline-3-carboxylic acid (5-benzylcarbamoyl-2-methyl-phenyl)-amide] | > 10000 | 320 | 226 |
| COc1cc2[nH]c(=O)c(C(=O)Nc3cc(C(=O)NCc4cccc(Cl)c4)ccc3C)cc2cc1OCCN1CCOCC1 [Example 43, 7-Methoxy-6-(2-morpholin-4-yl-ethoxy)-2-oxo-1,2-dihydro-quinoline-3-carboxylic acid [5-(3-chloro-benzylcarbamoyl)-2-methyl-phenyl]-amide] | 306 | 178 | 6 |
| COc1cc2[nH]c(=O)c(C(=O)Nc3cc(C(=O)NC(CCN)c4ccccc4)ccc3C)cc2cc1OCCN1CCOCC1 (stereo not drawn) [Example 44, 7-Methoxy-6-(2-morpholin-4-yl-ethoxy)-2-oxo-1,2-dihydro-quinoline-3-carboxylic acid [5-(3-amino-1-phenyl-propylcarbamoyl)-2-methyl-phenyl]-amide] | > 3000 | 63 | 33.4 |
| COCCOc1cc2cc(C(=O)Nc3cc(C(=O)NCc4cccc(Cl)c4)ccc3C)c(=O)[nH]c2cc1OC [Example 52, 7-Methoxy-6-(2-methoxy-ethoxy)-2-oxo-1,2-dihydro-quinoline-3-carboxylic acid [5-(3-chloro-benzylcarbamoyl)-2-methyl-phenyl]-amide] | 780 | 181 | 118 |
| COCCOc1cc2cc(C(=O)Nc3cc(C(=O)OC)ccc3Cl)c(=O)[nH]c2cc1OC [Example 53, Methyl 4-chloro-3-(7-methoxy-6-(2-methoxyethoxy)-2-oxo-1,2-dihydroquinoline-3-carboxamido)benzoate] | > 10000 | 115 | 245 |
